Assay results from article PMC3252867, “Marilones A–C, phthalides from the sponge-derived fungus Stachylidium sp” (Beilstein Journal of Organic Chemistry, 2011).
Like-named read-outs stand apart in the source and are kept apart here. Blank lines part the entries; values can stand above or below the compound they belong to.

What was measured:
Test in all cases: cells
Parameters in all cases: antiproliferative activity in human cancer cell lines, growth inhibition corrected for starting population (GI50)
Conditions in all cases: Homo sapiens
NCI-H460 = test system: NCI-H460
MCF7 = test system: MCF7
SF268 = test system: SF268

GI50 (NCI-H460; NCI-H460, read-out: GI50 (1)): 42.9 µM | GI50 (MCF7; MCF7, read-out: GI50 (1)): 28.8 µM
SMILES: COc1c(C)c(OC/C=C(\C)CCC=C(C)C)cc2c1C(=O)O[C@H]2C (racemic) [compound 1, Marilone A]
GI50 (SF268; SF-268, read-out: GI50 (1)): 38.4 µM

GI50 (NCI-H460; NCI-H460, read-out: GI50 Etoposide): 0.4 µM | GI50 (MCF7; MCF7, read-out: GI50 Etoposide): 22.8 µM
SMILES: COc1cc([C@@H]2c3cc4c(cc3[C@@H](O[C@@H]3O[C@@H]5CO[C@@H](C)O[C@H]5[C@H](O)[C@H]3O)[C@H]3COC(=O)[C@H]23)OCO4)cc(OC)c1O [Etoposide]
GI50 (SF268; SF-268, read-out: GI50 Etoposide): 7.7 µM

GI50 (NCI-H460; NCI-H460, read-out: GI50 (3)): 31 µM | GI50 (MCF7; MCF7, read-out: GI50 (3)): 20 µM
SMILES: COc1c(C)c(OC/C=C(\C)CCC=C(C)C)cc2c1COC2=O [compound 3, Marilone C]
GI50 (SF268; SF-268, read-out: GI50 (3)): 28.9 µM
